Literature values, collected in patent publication US4801577A, “Nonapeptide and decapeptide analogs of LHRH useful as LHRH antagonists” (Syntex (U.S.A.) Inc., priority 1987, dated 1989).

System: rat mast cells
Settings: rat mast cells in vitro

Row | Substance | ED50 for histamine release
1 | LHRH: natural releasing hormone LHRH, a decapeptide comprised of naturally occurring amino acids | 328 mg/L
2 | (N-Ac-D-Nal(2)^1, D-pCl-Phe^2, D-Trp^3, D-Arg^6)LHRH | 0.2 mg/L
3 | (N-Ac-D-Nal(2)^1, pCl-Phe^2, D-Trp^3, D-Lys(iPr)^8,Lys(iPr)^6, D-Ala^10)LHRH | 6.6 mg/L
4 | (N-Ac-D-Nal(2)^1, D-pCl-Phe^2, D-Trp^3, Arg^5, D-Tyr^6, D-Ala^10)LHRH | 2 mg/L
5 | (N-Ac-D-Nal(2)^1, D-αMe-pCl-Phe^2, D-Pal(3)^3, D-Arg^6, hArg(Et2)^8, D-Ala^10)LHRH | 4.9 mg/L
